# Experimental data reported in publication PMC3445454, “Broad and Cross-Clade CD4^+ T-Cell Responses Elicited by a DNA Vaccine Encoding Highly Conserved and Promiscuous HIV-1 M-Group Consensus Peptides” (PLoS ONE, 2012).
# Substitutions are numbered along the chain they refer to. Like-named read-outs stand apart in the source and are kept apart here. Ends that are not written are not given here.
# Legend:
# Assay in all cases: biochemical
# Type in all cases: binding
# [1] = target: HLA-DR DRB1*04:05 (Homo sapiens, UniProt P01903+P01911, A100R/A169T/D86S/F76Y/I96L/K127E/L162R/M171V/N62H/P40V/Q125Y/R42H/S133A/S149N/S66Y/V115G/V209L/W38E)
# [2] = target: HLA-DR DRB1*11:01 (Homo sapiens, UniProt P01903+P01911, A100R/A169T/A87E/I96F/K41T/L162R/M171V/P40S/Q125H/Q178H/Q39Y/Q99D/R42S/S66Y/T262R/V115G/W38E)
# Chain of HLA-DR DRB1*11:01 (P01903 26-254 limits assumed, other chains not shown): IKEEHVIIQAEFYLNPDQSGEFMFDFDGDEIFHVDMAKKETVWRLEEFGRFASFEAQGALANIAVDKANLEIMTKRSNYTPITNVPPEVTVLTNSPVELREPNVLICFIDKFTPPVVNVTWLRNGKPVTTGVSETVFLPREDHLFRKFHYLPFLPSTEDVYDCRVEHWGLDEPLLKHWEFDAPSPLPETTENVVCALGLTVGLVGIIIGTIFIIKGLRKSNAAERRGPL
# [3] = target: HLA-DR DRB1*12:01 (Homo sapiens, UniProt P01903+P01911, A100R/A169T/D57E/D86V/F55L/H45Y/K41T/L162R/M171V/P40S/Q125H/Q178H/Q39Y/Q99D/R42G/S66L/T262R/V114A/V67L/W38E/Y59H/Y61H/Y89S)
# [4] = target: HLA-DR DRB1*16:02 (Homo sapiens, UniProt P01903+P01911, A100R/F76Y/I96L/Q99D/V115G)
# [5] = target: HLA-DR DRB3*01:01 (Homo sapiens, UniProt P01903+P79483)
# [6] = target: HLA-DR DRB3*02:02 (Homo sapiens, UniProt P01903+P79483, A212P/D57E/F66Y/L67A/R103Q/R218S/R40L/S89Y/T80R/V86D/Y55F/Y59H); conditions: read-out: Binding capacity/IC50 (nM) DRB3*02:02
# Chain of HLA-DR DRB3*02:02 (P01903 26-254 limits assumed): as the sequence (P01903 26-254 limits assumed, other chains not shown) above
# Chain of HLA-DR DRB3*02:02 (P79483 30-266 R40L/Y55F/D57E/Y59H/F66Y/L67A/T80R/V86D/S89Y/R103Q/A212P/R218S limits assumed): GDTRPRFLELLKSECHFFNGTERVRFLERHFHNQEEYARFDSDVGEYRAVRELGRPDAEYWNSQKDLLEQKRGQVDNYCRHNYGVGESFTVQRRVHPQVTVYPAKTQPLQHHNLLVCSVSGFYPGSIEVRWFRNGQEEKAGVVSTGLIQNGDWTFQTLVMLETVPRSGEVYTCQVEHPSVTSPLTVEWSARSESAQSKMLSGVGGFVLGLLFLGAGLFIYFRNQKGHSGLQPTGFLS
# [7] = target: HLA-DR DRB5*01:01 (Homo sapiens, UniProt P01903+Q30154)
# [8] = target: T1, HLA-DP DPA1*01:03/DPB1*02:01 (Homo sapiens, UniProt P04440+P20036, A65V/A84D/A85E/K98E); conditions: read-out: Binding capacity/IC50 (nM) DPA1*01:03 DPB1*02:01
# T1 sequence (P20036 29-260): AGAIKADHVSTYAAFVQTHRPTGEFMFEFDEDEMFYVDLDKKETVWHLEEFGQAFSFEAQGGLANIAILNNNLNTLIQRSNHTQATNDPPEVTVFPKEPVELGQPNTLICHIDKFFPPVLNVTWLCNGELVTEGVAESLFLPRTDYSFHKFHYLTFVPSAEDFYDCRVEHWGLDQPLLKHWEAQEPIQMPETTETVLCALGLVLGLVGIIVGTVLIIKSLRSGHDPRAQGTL
# T1 sequence (P04440 30-258 A65V/A84D/A85E/K98E): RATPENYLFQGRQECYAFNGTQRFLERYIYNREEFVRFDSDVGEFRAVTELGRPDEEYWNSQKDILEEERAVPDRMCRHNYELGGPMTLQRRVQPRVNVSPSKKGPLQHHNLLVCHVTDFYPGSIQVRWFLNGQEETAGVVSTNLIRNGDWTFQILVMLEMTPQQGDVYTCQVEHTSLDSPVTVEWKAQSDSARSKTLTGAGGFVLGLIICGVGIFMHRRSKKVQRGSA
# [9] = target: T2, HLA-DP DPA1*02:01/DPB1*05:01 (Homo sapiens, UniProt P04440+P20036, A65V/A84E/F191V/F64L/G113D/G114E/K142R/L158P/M116V/M62Q/P115A/Q81R/R125K/T114A/T199I/T259P/V234M); conditions: read-out: Binding capacity/IC50 (nM) DPA1*02:01 DPB1*05:01
# T2 sequence (P20036 29-260 A42M/M62Q/Q81R/T114A/K142R/L158P/F191V/T259P): T1 sequence (P20036 29-260) with A14M, M34Q, Q53R, T86A, K114R, L130P, F163V, T231P
# T2 sequence (P04440 30-258 F64L/A65V/A84E/G113D/G114E/P115A/M116V/R125K/T199I/V234M): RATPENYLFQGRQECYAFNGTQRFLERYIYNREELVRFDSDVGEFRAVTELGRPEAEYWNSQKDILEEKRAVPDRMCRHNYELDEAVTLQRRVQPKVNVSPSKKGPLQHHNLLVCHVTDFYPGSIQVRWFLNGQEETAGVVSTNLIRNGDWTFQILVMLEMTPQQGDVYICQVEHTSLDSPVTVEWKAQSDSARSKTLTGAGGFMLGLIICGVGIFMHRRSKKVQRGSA
# [10] = target: T3, HLA-DP DPA1*02:01/DPB1*14:01 (Homo sapiens, UniProt P04440+P20036, A65V/A84D/A85E/E86D/F191V/F38H/G113D/G114E/G40L/I94L/K142R/L158P/L37V/M105V/M116V/M62Q/P115A/Q81R/R125K/T114A/T199I/T259P)
# T3 sequence (P20036 29-260 A42M/M62Q/Q81R/T114A/K142R/L158P/F191V/T259P): T1 sequence (P20036 29-260) with A14M, M34Q, Q53R, T86A, K114R, L130P, F163V, T231P
# T3 sequence (P04440 30-258 L37V/F38H/G40L/A65V/A84D/A85E/E86D/I94L/M105V/G113D/G114E/P115A/M116V/R125K/T199I/R223Q): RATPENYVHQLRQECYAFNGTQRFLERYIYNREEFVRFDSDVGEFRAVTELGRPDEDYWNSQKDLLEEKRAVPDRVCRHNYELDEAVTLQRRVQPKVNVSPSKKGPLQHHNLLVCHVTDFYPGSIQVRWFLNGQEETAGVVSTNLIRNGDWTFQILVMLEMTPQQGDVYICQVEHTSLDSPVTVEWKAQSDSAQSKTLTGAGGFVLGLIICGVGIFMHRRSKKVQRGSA
# [11] = target: T4, HLA-DP DPA1*01:03/DPB1*20:01 (Homo sapiens, UniProt P04440+P20036, A65V/A84D/A85E/E86D/F38Y/G113D/G114E/G40L/I94L/L37V/M116V/P115A/R125K/T199I)
# T4 sequence (P20036 29-260): T1 sequence (P20036 29-260)
# T4 sequence (P04440 30-258 L37V/F38Y/G40L/A65V/A84D/A85E/E86D/I94L/G113D/G114E/P115A/M116V/R125K/T199I/V234M): T3 sequence (P04440 30-258 L37V/F38H/G40L/A65V/A84D/A85E/E86D/I94L/M105V/G113D/G114E/P115A/M116V/R125K/T199I/R223Q) with H9Y, V76M, Q194R, V205M
# [12] = read-out: Binding capacity/IC50 (nM) DRB3*01:01
# [13] = read-out: Binding capacity/IC50 (nM) DPA1*02:01 DPB1*14:01
# [14] = read-out: Binding capacity/IC50 (nM) DPA1*01:03 DPB1*20:01
# [15] = read-out: Binding capacity/IC50 (nM) DRB5*01:01
Molecule,IC50 ([1]; read-out: Binding capacity/IC50 (nM) DRB1*04:05) [nM],IC50 ([2]; read-out: Binding capacity/IC50 (nM) DRB1*11:01) [nM],IC50 ([3]; read-out: Binding capacity/IC50 (nM) DRB1*12:01) [nM],IC50 ([4]; read-out: Binding capacity/IC50 (nM) DRB1*16:02) [nM],"IC50 [5, 12] [nM]",IC50 [6] [nM],IC50 [7] [nM],IC50 [8] [nM],IC50 [9] [nM],"IC50 [10, 13] [nM]","IC50 [11, 14] [nM]",IC50 [1] [nM],IC50 [2] [nM],IC50 [3] [nM],IC50 [4] [nM],IC50 [5] [nM],"IC50 [7, 15] [nM]",IC50 [10] [nM],IC50 [11] [nM]
IRYPLTFGWCFKLVPVDPREVEEA-NH2 [nef(133-156)],398,4540,4430,2740,3440,> 30000,317,119,4780,15900,13000,,,,,,,,
CC[C@H](C)[C@H](NC(=O)[C@H](C)NC(=O)[C@@H](N)CCC(=O)O)C(=O)N[C@H](C(=O)N[C@@H](CCCNC(=N)N)C(=O)N[C@H](C(=O)N[C@@H](CC(C)C)C(=O)N[C@@H](CCC(N)=O)C(=O)N[C@@H](CCC(N)=O)C(=O)N[C@@H](CC(C)C)C(=O)N[C@@H](CC(C)C)C(=O)N[C@@H](Cc1ccccc1)C(=O)N[C@H](C(=O)N[C@@H](Cc1c[nH]cn1)C(=O)N[C@@H](Cc1ccccc1)C(=O)N[C@@H](CCCNC(=N)N)C(=O)N[C@H](C(=O)NCC(=O)N[C@@H](CS)C(=O)N[C@@H](CCC(N)=O)C(=O)N[C@@H](Cc1c[nH]cn1)C(=O)N[C@@H](CO)C(=O)N[C@@H](CCCNC(=N)N)C(N)=O)[C@@H](C)CC)[C@@H](C)CC)[C@@H](C)CC)[C@@H](C)CC [vpr(58-80)],,,,,,4090,,717,2990,,,294,724,845,588,11600,443,3570,398
CC[C@H](C)[C@H](NC(=O)[C@H](C)NC(=O)[C@H](CCCCN)NC(=O)[C@H](CCCCN)NC(=O)CNC(=O)[C@H](CS)NC(=O)[C@@H](NC(=O)[C@H](CCC(=O)O)NC(=O)[C@@H](NC(=O)[C@H](CC(C)C)NC(=O)[C@@H](NC(=O)[C@H](CCC(N)=O)NC(=O)[C@H](CC(=O)O)NC(=O)[C@H](Cc1ccc(O)cc1)NC(=O)[C@H](CCC(N)=O)NC(=O)[C@H](CCCNC(=N)N)NC(=O)[C@@H](NC(=O)[C@H](CCCCN)NC(=O)[C@@H](NC(=O)[C@@H](N)Cc1ccccc1)[C@@H](C)CC)C(C)C)[C@@H](C)CC)[C@@H](C)CC)[C@@H](C)CC)C(=O)NCC(=O)N[C@H](C(=O)N[C@H](C(N)=O)C(C)C)[C@@H](C)O [protease(53-75)],,,,,545,9690,,41,53,1250,19,282,1360,77,388,,93,,
